Laboratory results taken from patent publication US10655099B2, “Animal protein-free media for cultivation of cells” (Baxalta Incorporated, priority 2004, dated 2020).

Assays:
GD8/6 cells = details: 0-18 mg/L (as HCl salt) in BAV-medium with 0.25% soy hydrolysate vs unsupplemented 0.25% or 0.4% soy hydrolysate
Experimental: Small scale experiments with GD8/6 cells in suspension culture were carried in Techne spinner flasks at 200 ml working volume in batch refeed mode at 37° C., without pH and pO2 control.
The activity of Factor VIII (FVIII) (cf. FIGS. 1 to 5 and 9) was measured by a chromogenic assay (Chromogenic, Sweden).
The cell specific productivity is defined as the specific amount of produced protein (U or μg) per number of cells per day (cf. FIGS. 7 and 9) or as the specific amount of produced protein (U) produced per amount of D-glucose consumed by the cells (cf. FIG. 8).

[1] = system: GD8/6 cells (CHO-cells stably expressing Factor VIII); assay: Volumetric FVIII productivity of GD8/6 cells in chemostat culture (chromogenic FVIII assay); type: cell-based
Experimental: (§1) Cell cultures of recombinant mammalian cells (e.g. CHO-cells stably expressing Factor VIII=GD8/6-cells) were grown in suspension in a chemostat culture in 10 l bioreactors. The culture conditions of 37° C., oxygen saturation 20% and pH 7.0 to 7.1 were kept constant. The cultures were supplied with a constant feed of BAV-medium as defined in Example 1 additionally supplemented with soy hydrolysates in the range of […] and/or addition of putrescine.2HCl in the range of 0-1 mg/L (cf. FIG. 1-5).
The volumetric productivity is calculated from the amount of activity units or antigen titers yielded per liter reactor volume per day (U/L/d or mg/L/d) in the respective production systems.

[2] = system: GD8/6 cells (CHO-cells stably expressing Factor VIII)
Experimental: as §1
Cell counts from suspension cells or immobilized cells were determined either by counting with a CASY® cell counter as described by Schärfe et al., (Biotechnologie in LaborPraxis 10: 1096-1103 (1988)) or by citric acid extraction and fluorescent staining of the nuclei followed by counting with a NucleoCounter® (Chemometec, DK). The specific growth rate (μ) is calculated from the increase of the cell densities (X1) and/or the dilution rate (D) of the steady state of chemostat cultures of suspensions cells over a certain time interval (t): μ=D+In (Xt I X0)/t

Recombinant BHK cells = details: 0.25% (w/v) soy hydrolysate + 1.8 mg/L putrescine.2HCl vs 0.25% soy peptone alone; 3 days; EPO activity per glucose consumption
Experimental: Recombinant BHK cells were grown to confluence in 5% (v/v) fetal calf serum containing medium. The cells were washed with protein-free medium and incubated for 3 days in BAV medium supplemented with 0.25% (w/v) soy hydrolysate or 0.25% (w/v) soy hydrolysate+1.8 mg/L putrescine.2HCl (FIG. 8).

[3] = 0.25% (w/v) soy hydrolysate + 1 mg/L putrescine.2HCl
[4] = 0.25% (w/v) soy hydrolysate + 1 mg/L putrescine.2HCl vs 0.25% soy hydrolysate alone

Q: Which “cell specific productivity (FVIII), change” value (GD8/6 cells) does the source give for `NCCC[C@H](N)C(=O)O` [ornithine] here?
A: significant increase

Q: How did the “variation of volumetric FVIII-productivity between soy hydrolysate lots” value [1, 3] turn out when `NCCCCN` [putrescine] was run?
A: only minor variations

Q: What about the “volumetric and cell specific FVIII-productivity, change” value [1, 4] of the same compound?
A: increases

Q: What about the “volumetric productivity of FVIII, effect of addition” value ([1]; addition to BAV-medium with 0.25% (w/v) soy hydrolysate, due to increased cell specific FVIII productivity) of the same compound?
A: over proportional increased

Q: What about the “cell specific productivity (FVIII), change” value (GD8/6 cells) of the same compound?
A: significant increase

Q: And the “variation of specific growth rates between soy hydrolysate lots” value [2, 3]?
A: only minor variations

Q: And the “specific growth rate, change” value [2, 4]?
A: increases

Q: What about the “increase in EPO productivity” value (Recombinant BHK cells) of the same compound?
A: 16%

Q: With `NCCCNCCCCNCCCN` [spermine] as the compound, how does the “cell specific productivity (FVIII), change” value (GD8/6 cells) read?
A: significant increase
